Reference: patent US6908911B1, “Antibacterial agents” (British Biotech Pharmaceuticals Limited, priority 1999, dated 2005)
Converted amounts (≈) assume the structure as drawn.

System: E. coli strain DH5α
Experiment: Minimal inhibitory concentration (MIC) against E. coli
Assay type: cell-based
Conditions: Escherichia coli; 2×YT broth, 37° C., 18 hours; lowest drug concentration that inhibited visible growth
Protocol: Minimal inhibitory concentrations (MIC) of inhibitors against E. coli strain DH5α (Genotype; F-φ80dlacZΔM15Δ(lacZYA-argF)U169 deoR recA1 endA1 hsdR17(rk^−,mk^+)phoA supE44λ^− thi-1 gyrA96 relA1) obtained from GibcoBRL Life Technologies, Enterobacter cloacae (American Type Culture Collection number 13047), Klebsiella pneumoniae (American Type Culture Collection number 13883) or Staphylococcus capitis (American Type Culture Collection number 35661) were determined as follows. Stock solutions of test compound (Compounds 1 and 2 from Examples 1 and 2 respectively (both isomer A)) and three standard laboratory antibiotics, carbenicillin (Sigma, catalogue No. C3416), kanamycin (Sigma, catalogue No. K4000) and chloramphenicol (Sigma, catalogue No. C1919), were prepared by dissolution of each compound in dimethylsulfoxide at 10 mM. […] Cell densities were adjusted to absorbance at 660 nm (A660)=0.1; the optical density-standardised preparations were diluted 1:1000 in 2×YT broth; and each well inoculated with 0.05 ml of the diluted bacteria. […] The MIC (μM) was recorded as the lowest drug concentration that inhibited visible growth.

MIC: 12.5 µM (≈ 3.74 µg/mL)
Compound: CCCC[C@H](CN(O)C=O)C(=O)N(C)C1CCN(C)CC1 [Example 7]
